Laboratory results published in article PMC11784013, “Potassium molybdate blocks APN-dependent coronavirus entry by degrading receptor via PIK3C3-mediated autophagy” (Journal of Virology, 2024).

Tested on: autophagy markers P62 and LC3
Experiment: Autophagy markers P62 and LC3 in ST cells (western blot)
Type: cell-based, swine
Conditions: PM 10 mM; for LC3 (LC3-Ⅱ) level, western blot, relative to WT without PM (=1) / P62 level, western blot, relative to WT without PM (=1): PRCV 0.1 MOI, 16 h
Protocol: Fig 6 PM degrades APN by autophagy-lysosome pathway. (A) ST cells were treated with PM (10 mM) and infected with TGEV (0.1 MOI) in the presence and absence of MG132 (20 µM), 3-MA (20 mM), and Z-VAD-FMK (20 µM) for 16 h. The APN expression and TGEV N were detected by western blot. (B) ST cells were treated with PM (10 mM) at 2, 4, 8, and 16 h, autophagy markers P62 and LC3, and APN were measured by western blot. (C) ST cells were transfected with RFP-EGFP-LC3B for 12 h and then treated with PM (10 mM) or H2O for 36 h. The fluorescence of GFP and RFP was detected by confocal microscopy, scale bar: 5 µm. (D) Quantification of autophagosomes (Merge) and autolysosomes (RFP) from C using Image J software. (E) ST cells were treated with PM or H2O for 24 h. The autophagosomes (yellow arrow) and autolysosomes (asterisk) were detected by transmission electron microscope, scale bar: 2 µm. (F) The number of autophagosomes (yellow arrow) and autolysosomes (asterisk) was quantified. All western blot results were calculated by Image J. Results are presented as mean ± SD of data from three independent experiments. ***, P ≤ 0.001.
Cotransfected cells were washed with cold PBS twice and lysed with NP40 lysis buffer (Beyotime, China, P0013F) supplemented with 1 mM PMSF (Beyotime, China, ST506) and phosphatase inhibitors (Beyotime, China, P1096). Lysis buffer containing cells was added to 20 µL of protein A+G agarose beads (Beyotime, China, P2055) and IgG (Santa Cruz, USA, 2025) on a rotating device for 4 h at 4°C to remove nonspecific proteins, after which the mixture was centrifuged at 2,500 rpm for 5 min. The supernatant was harvested, and anti-Flag/Myc/His/IgG antibodies were added to the samples on a rocking platform overnight at 4°C. Subsequently, 40 µL of protein A+G agarose beads were added to the supernatant containing the antibody, which was incubated for 4 h at 4°C on a rotating device. After washing with lysis buffer three times, the immunoprecipitates were collected by centrifugation, and the supernatant was discarded. Immunoprecipitated proteins were detected by western blotting. For the western blot, the proteins were separated by SDS‒PAGE and transferred onto a PVDF membrane (GE, USA, 10600023). The membranes were blocked in 5% nonfat milk at room temperature for 2 h and then incubated with specific primary antibodies overnight. Subsequently, the membrane was incubated with the secondary antibody for 1 h at room temperature. Finally, the proteins on the membranes were visualized with WesternBright ECL (Advansta, USA, K-12045-D50).
Fig. S8. PM inhibits PRCV infection by degrading APN via PIK3C3-mediated autophagy. (A-C) WT ST cells and PIK3C3 KO ST cells were treated with PM (10 mM) and infected with PRCV (0.1 MOI) for 16 h. Then the APN, PIK3C3, ATG14, BECN1, P62, PRCV N and LC3 were detected by western blot (A), and viral titers and PRCV N mRNA level were determined by TCID50 (B) and RT-qPCR (C) . (D-F) WT ST cells and PIK3C3 KO ST cells transfected with pCMV-Myc and pCMV-Myc-PIK3C3 respectively for 24 h were treated with PM (10 mM) and infected with PRCV (0.1 MOI) for 16 h. The APN, PIK3C3, P62, PRCV N and LC3 were determined by western blot (D). TCID50 (E) and RT-qPCR (F) were performed to detect viral titers and PRCV N m RNA level. All western blot results were calculated by Image J. Results are presented as mean ± SD of data from three independent experiments (also on this page, place not known: 6 8 10 12 Viral load(log copies/ul) *** 2 4 6 8 log10 TCID50/ml *** 6 8 10 12 + Viral load(log copies/ul) PIK3C3-Myc + - + + + *** *** 2 4 6 8 log10 TCID50/ml *** + + + + PIK3C3-Myc - - - + - + + + *** WT KO PM (C). WT KO PM PRCV PM - + + PRCV + + + WT PIK3C3 KO PIK3C3 PRCV PIK3C3-Myc - - - + PM - + + + PRCV + + + + WT PIK3C3 KO 0 0) […]

[1] = Fig. S8D, PIK3C3 KO ST cells with PIK3C3-Myc
[2] = Fig. S8D, PIK3C3 KO ST cells without PIK3C3-Myc
[3] = Fig. S8D, WT ST cells with pCMV-Myc

## [K+].[K+].[O]=[Mo](=[O])([O-])[O-] [PM, potassium molybdate]
Fig. S8A, PIK3C3 KO ST cells
  LC3 (LC3-Ⅱ) level, western blot, relative to WT without PM (=1): 0.95
  P62 level, western blot, relative to WT without PM (=1): 0.83
Fig. S8A, WT ST cells
  LC3 (LC3-Ⅱ) level, western blot, relative to WT without PM (=1): 3.42
  P62 level, western blot, relative to WT without PM (=1): 0.16
[1]
  LC3 (LC3-Ⅱ) level, western blot, relative to WT without PM (=1): 3.45
  P62 level, western blot, relative to WT without PM (=1): 0.27
[2]
  LC3 (LC3-Ⅱ) level, western blot, relative to WT without PM (=1): 1.12
  P62 level, western blot, relative to WT without PM (=1): 0.91
[3]
  LC3 (LC3-Ⅱ) level, western blot, relative to WT without PM (=1): 3.61
  P62 level, western blot, relative to WT without PM (=1): 0.26
ST cells, 2-16 h, western blot
  LC3-II generation from LC3-I: more of the autophagosome protein LC3-II was generated
  p62 level: p62 was consumed
